{"source": "patent US20040110138A1", "about": "“Method for the detection of multiple genetic targets” (University of Ottawa, priority 2002, published 2004)", "tested_on": "coagulase-negative Staphylococci (CoNS)", "assay": "Oxacillin MIC by agar dilution (NCCLS M100-S10, M7), isolate retest", "format": "cell-based", "protocol": "Blood culture bottles that were flagged as positive by the BacT/Alert system (Organon Teknika Corp., Durham N.C.) were processed by the Microbiology laboratory using standard microbiologic methods (Kloos & Bannerman, 1999). S. aureus was identified by a positive tube coagulase test. Oxacillin susceptibility for S. aureus was determined using the oxacillin salt agar screen method (NCCLS M100-S10, M7) and for coagulase-negative Staphylococci (CoNS) using disk diffusion testing (NCCLS M100-S10, M2).\nIn cases where there were discrepancies between the mecA PCR result of the blood culture bottle contents and the initial susceptibility result for the isolate recovered from the bottle, the isolate was re-tested for the mecA gene, oxacillin MIC was determined by agar dilution (NCCLS M100-S10, M7) and disk diffusion testing for oxacillin was repeated (NCCLS M100-S10, M2).", "data": [{"molecule": "Cc1onc(-c2ccccc2)c1C(=O)N[C@@H]1C(=O)N2[C@@H]1SC(C)(C)[C@@H]2C(=O)O", "note": "[Oxacillin]", "values": [{"measurement": "Oxacillin MIC", "setting": "isolate from bottle 8, initially reported as MS-CoNS", "value": 2.0}, {"measurement": "Oxacillin MIC", "setting": "isolate from bottle 10, initially reported as MR-CoNS", "value": 0.5}]}]}
